Earlier results on 2 compounds are cited in patent publication US20110246079A1, “INDIVIDUAL 5-FLUOROURACILE DOSE OPTIMIZATION IN FOLFOX TREATMENT” (Centre Regional De Lutte Contre, priority 2008, published 2011).

The test system of one data set is patients. The following applies: 5-FU treatment.
Data set [1] concerns the target T1, dihydropyrimidine dehydrogenase (DPD) (Homo sapiens, UniProt Q12882).
T1 construct: This ubiquitous enzyme is a major factor of 5-FU biodisponibility, since in a subject with normal DPD enzymatic activity; endogenous in cells; host or cells: Subject or patient in vivo (enzyme described as ubiquitous)
T1 sequence (Q12882 4-1025): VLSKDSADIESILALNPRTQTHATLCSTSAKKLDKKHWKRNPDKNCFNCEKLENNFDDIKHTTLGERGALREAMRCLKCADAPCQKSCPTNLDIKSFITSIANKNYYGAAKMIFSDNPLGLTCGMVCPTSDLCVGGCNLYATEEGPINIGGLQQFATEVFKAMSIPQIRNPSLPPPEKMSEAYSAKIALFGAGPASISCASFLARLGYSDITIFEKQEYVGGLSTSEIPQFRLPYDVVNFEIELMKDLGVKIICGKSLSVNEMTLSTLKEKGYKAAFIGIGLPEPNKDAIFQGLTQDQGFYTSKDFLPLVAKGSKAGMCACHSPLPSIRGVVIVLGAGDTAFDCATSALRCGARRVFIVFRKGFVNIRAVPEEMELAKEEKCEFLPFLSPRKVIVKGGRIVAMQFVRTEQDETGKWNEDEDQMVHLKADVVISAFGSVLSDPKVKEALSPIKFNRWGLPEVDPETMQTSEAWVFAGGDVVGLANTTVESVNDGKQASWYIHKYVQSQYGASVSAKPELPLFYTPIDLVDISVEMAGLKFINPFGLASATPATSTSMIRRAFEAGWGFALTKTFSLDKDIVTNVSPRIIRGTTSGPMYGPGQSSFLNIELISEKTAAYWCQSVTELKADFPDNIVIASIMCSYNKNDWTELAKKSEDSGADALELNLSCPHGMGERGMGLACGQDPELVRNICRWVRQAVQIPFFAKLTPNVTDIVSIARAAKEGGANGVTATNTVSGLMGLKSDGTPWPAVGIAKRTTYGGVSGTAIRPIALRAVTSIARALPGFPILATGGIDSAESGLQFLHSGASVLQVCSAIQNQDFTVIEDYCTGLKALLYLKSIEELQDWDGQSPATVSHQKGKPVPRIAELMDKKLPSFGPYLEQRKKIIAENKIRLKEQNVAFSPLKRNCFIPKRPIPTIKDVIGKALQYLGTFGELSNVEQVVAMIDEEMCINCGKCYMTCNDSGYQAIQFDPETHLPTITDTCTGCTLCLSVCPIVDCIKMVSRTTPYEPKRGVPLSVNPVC
The note with it: subject with normal DPD enzymatic activity.

A further data set concerns 5-FU metabolism. The note with it: in vivo.

Structures are written as SMILES.

For the compound `O=c1[nH]cc(F)c(=O)[nH]1` [5-FU, 5-fluorouracile], under “after the beginning of the 5-FU continuous infusion”, the “time for 5-FU plasmatic levels to reach a plateau” value was “about 1 hour”. For the same compound, for the setting “in vivo”, the half-life in blood result is “very short”. Moreover, in the data set with patients, the “death, treated patients” value is listed as 0.8% and the “very early polyvisceral toxicity, patients” value was 5-8%. The “severe grade 3-4 toxicity” value in the data set on patients (standard doses) is reported as 20-25%. The “administered 5-FU available for / metabolized by the anabolic pathway” value in data set [1] is on record as 20%.
`O=C1[O][Pt]2([NH][C@@H]3CCCC[C@H]3[NH]2)[O]C1=O` [oxaliplatin]: the “effect on 5-FU metabolism” value in the data set with 5-FU metabolism is recorded as “inhibits 5-FU metabolism”.
